Measurements published in article PMC4650712, “Conversion of cell-survival activity of Akt into apoptotic death of cancer cells by two mutations on the BIM BH3 domain” (Cell Death & Disease, 2015).

How the values were obtained:
PC3 cells [1] = assay: Cell fractionation: cytochrome c release from mitochondria; type: cell-based; conditions: 6 h
Experimental: Figure 7 The BH3BIM(I155R/E158S) sequence induces phosphorylation-dependent cell death. (a) Cell viability by the MTT assay. One day after transfection of PC3 cells with an empty vector (EV) or a PTEN-expressing vector (PTEN), cells were treated for 12 h with AuNP-anti-GST DNA aptamer composite coated with the indicated BH3BIM peptide fused to GST (5 μM). (b) Intracellular delivery of the GST-fused peptides. Cells were washed with PBS three times to remove proteins attached to the plasma membrane. M1 stands for BH3BIM (E158S), M2 for BH3BIM (I155R/E158A), and M3 for BH3BIM (I155R/E158S). (c) Cell viability by trypan blue dye exclusion assay. To confirm the effect in (a), cells were incubated with indicated materials for 24 h and stained with trypan blue for 10 min. Percent of live cells were determined by average of 200 cells in three independent experiments. (d) Immunostaining of cytochrome c in PC3 cells. Cells were transfected (EV or PTEN), and incubated with the CPP-BH3BIM(I155R/E158S) peptide (CPP-peptide) for 48 h. […] Cells were incubated with CPP-BH3BIM(I155R/E158S) for 6 h and subjected to cell fractionation. […] (g) HEK293 cells were treated in the same way as in (a). Viable cells were evaluated 48 h after the treatment by the MTT assay. Error bars indicate the S.D. (n=3) […]

HCT116 cells [2] = assay: Immunofluorescence of cytochrome c, HCT116 cells; type: cell-based, human; conditions: 20 μM
Experimental: (§1) For intracellular delivery, BH3BIM(I155R/E158S) was fused to the C-terminus of the cell penetration peptide (CPP) derived from HIV Tat (Figure 1). PC3 and HCT116 cells were treated with the CPP-BH3BIM(I155R/E158S) peptide, and the MTT assay was performed. […] We then measured the activity of Akt by examining the phosphorylation state of itself and its substrate GSK3β. […] To elaborate this observation, we examined the effect of the fusion peptide in three different human lung cancer cell lines. […] We then assessed the effect of the Akt activity by ectopically expressing wild-type Akt (Akt-WT), constitutively active Akt (myristoylated Akt; Akt-Myr) or kinase-dead-Akt (Akt-KD). […] The kinase activities of the three Akt versions were confirmed by examining GSK3β phosphorylation (Figures 6f and p-GSK3β). […]
(§2) Figure 6 CPP-fused BH3BIM(I155R/E158S) peptide induces death of PC3 cells. (a) Cell viability evaluated by the MTT assay 72 h after treatment of the peptide (0, 10 or 20 μM). […] Cytochrome c (green) was detected by anti-cytochrome c antibody and FITC-conjugated secondary antibody, and the nucleus was stained by DAPI. […]
Cells were seeded on a cover glass and incubated with the CCP-fused BH3BIM(I155R/E158S) peptide. […] The immunofluorescence signal was detected by fluorescence microscopy (Zeiss, Oberkochen, Germany).

HCT116 cells [3] = assay: Death of HCT116 cells with ectopic Akt; type: cell-based; conditions: peptide 72 h
Experimental: (§3) For intracellular delivery, BH3BIM(I155R/E158S) was fused to the C-terminus of the cell penetration peptide (CPP) derived from HIV Tat (Figure 1). PC3 and HCT116 cells were treated with the CPP-BH3BIM(I155R/E158S) peptide, and the MTT assay was performed. […] We then measured the activity of Akt by examining the phosphorylation state of itself and its substrate GSK3β. […] To elaborate this observation, we examined the effect of the fusion peptide in three different human lung cancer cell lines. […] We then assessed the effect of the Akt activity by ectopically expressing wild-type Akt (Akt-WT), constitutively active Akt (myristoylated Akt; Akt-Myr) or kinase-dead-Akt (Akt-KD). […] The kinase activities of the three Akt versions were confirmed by examining GSK3β phosphorylation (Figures 6f and p-GSK3β). To know whether CPP-BH3BIM(I155R/E158S)-induced cell death might depend on BAX, the HCT116 BAX^+/− and the HCT116 BAX^−/− cell lines were transfected with an expression vector encoding AKT-Myr and the cells were treated with the peptide. […] The survival of the BAX^−/− cells despite the CPP-BH3BIM(I155R/E158S) treatment could be explained by an observation that the designed peptide only weakly binds to MCL-1 (not shown), which is a major inhibitor of BAK.[35] Presumably, both MCL-1 and BAK are expressed in these cells.[36]
Figure 6 CPP-fused BH3BIM(I155R/E158S) peptide induces death of PC3 cells. (a) Cell viability evaluated by the MTT assay 72 h after treatment of the peptide (0, 10 or 20 μM). N.S indicates non-significance. Error bars indicate S.D. (n=3). (b) The immunofluorescence images of PC3 and HCT116 cells treated with 20-μM CPP-BH3BIM(I155R/E158S). Cytochrome c (green) was detected by anti-cytochrome c antibody and FITC-conjugated secondary antibody, and the nucleus was stained by DAPI. The large boxes are the enlargement of the small boxes, highlighting the cytochrome c staining. (c) Western blot (WB) analysis to examine the effect of CPP-BH3BIM(I155R/E158S) on the phosphorylation of Akt (at Ser473) and GSK3β (at Ser9). […]

HEK293 cells = assay: MTT assay, HEK293 cells; type: cell-based; conditions: AuNP-protein or CPP-peptide
Experimental: Figure 7 The BH3BIM(I155R/E158S) sequence induces phosphorylation-dependent cell death. (a) Cell viability by the MTT assay. One day after transfection of PC3 cells with an empty vector (EV) or a PTEN-expressing vector (PTEN), cells were treated for 12 h with AuNP-anti-GST DNA aptamer composite coated with the indicated BH3BIM peptide fused to GST (5 μM). (b) Intracellular delivery of the GST-fused peptides. Cells were washed with PBS three times to remove proteins attached to the plasma membrane. M1 stands for BH3BIM (E158S), M2 for BH3BIM (I155R/E158A), and M3 for BH3BIM (I155R/E158S). (c) Cell viability by trypan blue dye exclusion assay. To confirm the effect in (a), cells were incubated with indicated materials for 24 h and stained with trypan blue for 10 min. Percent of live cells were determined by average of 200 cells in three independent experiments. (d) Immunostaining of cytochrome c in PC3 cells. […] Viable cells were evaluated 48 h after the treatment by the MTT assay. […]
PC3 and HEK293 cells were incubated with the GST-BH3BIM(I155R/E158S) protein conjugated to AuNP-anti-GST DNA aptamer composite[37] after transfection with a PTEN expression vector (pCMV Flag WT-PTEN; addgene plasmid #22231). […] After removing excess solution and washing with PBS, the precipitated materials were dissolved in […] of dimethyl sulfoxide and quantified by measuring the absorbance at 540 nm. […]

Akt = assay: Western blot of Akt phosphorylation (Ser473) in PC3 cells; type: cell-based; conditions: 6 h
Experimental: as §1, with “p-GSK3β). To know whether CPP-BH3BIM(I155R/E158S)-induced cell death might depend on BAX, the HCT116 BAX^+/− and the HCT116 BAX^−/− cell lines were transfected with an expression vector encoding AKT-Myr and the cells were treated with the peptide.” for “p-GSK3β).”
as §2

H1299 = assay: MTT assay, H1299 lung cancer cells; type: cell-based, human; conditions: PTEN-silenced
Experimental: as §1, with “p-GSK3β). To know whether CPP-BH3BIM(I155R/E158S)-induced cell death might depend on BAX, the HCT116 BAX^+/− and the HCT116 BAX^−/− cell lines were transfected with an expression vector encoding AKT-Myr and the cells were treated with the peptide.” for “p-GSK3β).”
as §2

A549 = assay: MTT assay, A549 lung cancer cells; type: cell-based, human; conditions: K-Ras mutation
Experimental: as §1, with “p-GSK3β). To know whether CPP-BH3BIM(I155R/E158S)-induced cell death might depend on BAX, the HCT116 BAX^+/− and the HCT116 BAX^−/− cell lines were transfected with an expression vector encoding AKT-Myr and the cells were treated with the peptide.” for “p-GSK3β).”
as §2

GSK3β = assay: Western blot of GSK3β phosphorylation (Ser9) in PC3 cells; conditions: 6 h
PC3 cells [4] = assay: Immunofluorescence of cytochrome c, PC3 cells; type: cell-based, human
Experimental: as §3
Figure 6 CPP-fused BH3BIM(I155R/E158S) peptide induces death of PC3 cells. (a) Cell viability evaluated by the MTT assay 72 h after treatment of the peptide (0, 10 or 20 μM). N.S indicates non-significance. Error bars indicate S.D. (n=3). (b) The immunofluorescence images of PC3 and HCT116 cells treated with 20-μM CPP-BH3BIM(I155R/E158S). Cytochrome c (green) was detected by anti-cytochrome c antibody and FITC-conjugated secondary antibody, and the nucleus was stained by DAPI. The large boxes are the enlargement of the small boxes, highlighting the cytochrome c staining. (c) Western blot (WB) analysis to examine the effect of CPP-BH3BIM(I155R/E158S) on the phosphorylation of Akt (at Ser473) and GSK3β (at Ser9). PC3 cells were incubated with the peptide for 6 h at the indicated concentration. t-Akt and t-GSK3β stand for total Akt and GSK3β, respectively. (d) MTT assay to examine the cytotoxic effect of CPP-BH3BIM(I155R/E158S) on lung cancer cell lines. […] (e) Promotion of CPP-BH3BIM(I155R/E158S)-induced death of HCT116 cells by Akt. Cells were transfected with the indicated vectors for 24 h and incubated with the peptide for 72 h. Cell death was promoted by Akt-WT and Akt-Myr, but not by Akt-KD. (f) Phosphorylation of GSK3β (p-GSK3β) by Akt-WT and Akt-Myr, but not by Akt-KD. […]
Figure 7 The BH3BIM(I155R/E158S) sequence induces phosphorylation-dependent cell death. […] Percent of live cells were determined by average of 200 cells in three independent experiments. […]

PARP = PARP cleavage; type: cell-based; conditions: PTEN-transfected; indicator of caspase activation
Experimental: Figure 7 The BH3BIM(I155R/E158S) sequence induces phosphorylation-dependent cell death. (a) Cell viability by the MTT assay. One day after transfection of PC3 cells with an empty vector (EV) or a PTEN-expressing vector (PTEN), cells were treated for 12 h with AuNP-anti-GST DNA aptamer composite coated with the indicated BH3BIM peptide fused to GST (5 μM). (b) Intracellular delivery of the GST-fused peptides. Cells were washed with PBS three times to remove proteins attached to the plasma membrane. M1 stands for BH3BIM (E158S), M2 for BH3BIM (I155R/E158A), and M3 for BH3BIM (I155R/E158S). (c) Cell viability by trypan blue dye exclusion assay. To confirm the effect in (a), cells were incubated with indicated materials for 24 h and stained with trypan blue for 10 min. Percent of live cells were determined by average of 200 cells in three independent experiments. (d) Immunostaining of cytochrome c in PC3 cells. Cells were transfected (EV or PTEN), and incubated with the CPP-BH3BIM(I155R/E158S) peptide (CPP-peptide) for 48 h. […] (e) PTEN blocked the cytochrome c release from mitochondria. Cells were incubated with CPP-BH3BIM(I155R/E158S) for 6 h and subjected to cell fractionation. […] (g) HEK293 cells were treated in the same way as in (a). Viable cells were evaluated 48 h after the treatment by the MTT assay. Error bars indicate the S.D. (n=3) […]

PC3 cells [5] = assay: MTT viability assay, PC3 cells, CPP-fused peptide; conditions: 72 h, 0, 10 or 20 μM, n=3, PTEN-null, elevated Akt activity
H23 = assay: MTT assay, H23 lung cancer cells; type: cell-based, human; conditions: wild-type K-Ras, normal Akt activity
Experimental: as §1, with “p-GSK3β). To know whether CPP-BH3BIM(I155R/E158S)-induced cell death might depend on BAX, the HCT116 BAX^+/− and the HCT116 BAX^−/− cell lines were transfected with an expression vector encoding AKT-Myr and the cells were treated with the peptide.” for “p-GSK3β).”
as §2

## YGRRARRRARREIWIAQELRRRGDSFNAYYAR [CPP-BH3BIM(I155R/E158S), BH3BIM(I155R/E158S) fused to the C-terminus of the cell penetration peptide (CPP) derived from HIV Tat]
PC3 cells [1]
  cytoplasmic cytochrome c: Increase of cytoplasmic cytochrome c
PC3 cells [1]; PTEN-transfected
  increase of cytoplasmic cytochrome c with PTEN expression: obviously blocked by PTEN expression
HCT116 cells [2]
  cytochrome c distribution: retained the puncta staining pattern
HCT116 cells [3]; Akt-KD transfected 24 h
  promotion of peptide-induced cell death: did not show an additive effect
HCT116 cells [3]; Akt-Myr transfected 24 h
  promotion of peptide-induced cell death: promoted death of HCT116 cells
HCT116 cells [3]; Akt-WT transfected 24 h
  promotion of peptide-induced cell death: promoted death of HCT116 cells
HEK293 cells
  viability of HEK293 cells (Supplementary Figure S6): slightly increased cell viability without a statistical significance
Akt
  phosphorylation of Akt (Ser473): not Akt itself
H1299
  sensitivity to the peptide: exhibited sensitivity to the peptide
A549
  response to the peptide: moderate response
GSK3β; PC3 cells, western blot
  phosphorylation of GSK3β (Ser9): reduced the phosphorylation of GSK3β
GSK3β; PTEN experiment (Figure 7e)
  p-S9-GSK3β: Reduction of p-S9-GSK3β
PC3 cells [4]; 20 μM, immunofluorescence
  apoptotic cell death: underwent apoptotic cell death
PC3 cells [4]; 20 μM, immunofluorescence, untransfected PC3
  cytochrome c distribution: diffused in the cytoplasm and gradually accumulated in the nucleus
PC3 cells [4]; EV-transfected PC3, 48 h
  cytochrome c staining pattern: diffused nuclear pattern
PC3 cells [4]; PTEN-expressing PC3, 48 h
  cytochrome c staining pattern: Cytoplasmic puncta staining pattern
PARP
  PARP cleavage with PTEN: PTEN also blocked PARP cleavage
PC3 cells [5]
  cytotoxic activity: strong cytotoxic activity
H23
  response to the peptide: did not respond to this peptide
